The values that follow are results of earlier work, collected in US9662344B2, “Carnitine retention” (The University of Nottingham, priority 2003, dated 2017).

Where two headings read alike, the source gives them in different places.

Data set [1] has as its system skeletal muscle carnitine uptake. To be noted: isolated cells (Georges et al., 2000).
Assay in data set [2]: not given
The source holds these as a separate data set.

[3] abbreviates: oral doses of L-carnitine between 2 and 6 g.

Turning to `C[N+](C)(C)C[C@H](O)CC(=O)[O-]` [L-carnitine], the Km in data set [1] was 6.4 µM. Moreover, the “plasma carnitine concentration of maximum renal reabsorption” value (above this the excess is excreted in urine) was 60 to 100 µmol/L. Besides, under setting [3], the bioavailability result is listed as “less than 20%”. The “time of peak plasma concentrations after ingestion” value under setting [3] is reported as roughly 3 h. Moreover, the “resting skeletal muscle carnitine content” value in data set [2] (6 g every day for up to 2 weeks (Vukovich et al 1994)) was “no significant increase”. The VO2 max entry in data set [2] (competitive walkers, oral 4 g every day for 2 weeks (Marconi et al 1985)) is “slight but significant increase”; in data set [2] (single dose 2 g orally an hour before exercise (Vecchiet et al 1990)), “increase”. Further, in data set [2] (oral 3-5 g L-carnitine over 5-28 days), the “effect on VO2 max, RQ, maximal exercise, fatty acid utilisation, glucose utilisation, lactate, perceived exertion, or heart rate” value is recorded as “no effect”.
